The values below are quoted from earlier work in publication PMC7395068, “The evolution of strategies to minimise the risk of human drug-induced liver injury (DILI) in drug discovery and development” (Archives of Toxicology, 2020).

Structures are written as SMILES. Like-named read-outs stand apart in the source and are kept apart here. Where a SMILES comes first, the peptide text is derived from it. [ ]: non-standard residue; d: D form. dPhe(4-Cl) = N[C@H](Cc1ccc(Cl)cc1)C(=O)O; d2Nal = N[C@H](Cc1ccc2ccccc2c1)C(=O)O; dCit = NC(=O)NCCC[C@@H](N)C(=O)O; d3Pal = N[C@H](Cc1cccnc1)C(=O)O

The conditions of the data set: cited from earlier work.
The mark [1] stands for this setting: LTKB DILIrank category, ref Chen 2016.
The mark [2] stands for this setting: binary DILI call, ref Chen 2016.
Setting [3] is: binary in vivo human DILI call, ref Chen 2016.
Where [4] appears, read: human DILI, LTKB DILIrank category, ref Chen 2016.

With `CC(=O)[O-].CC(=O)[O-].[Ca+2]` [calcium acetate], for the setting “in vivo”, the “DILI +VE (5-8), DILI -VE (-4)” value is given as “-VE” and the DILI severity category entry is on record as “vNo-DILI-Concern”.
Consider `CCCCCOC(=O)Nc1nc(=O)n([C@@H]2O[C@H](C)[C@@H](O)[C@H]2O)cc1F` [capecitabine], for which, under setting [1], the DILI severity category result is listed as “Ambiguous DILI-concern”. The “DILI +VE (5-8), DILI -VE (-4)” value under setting [2] was “-VE”.
In the case of `CC1(C)S[C@@H]2[C@H](NC(=O)C(C(=O)O)c3ccccc3)C(=O)N2[C@H]1C(=O)O` (stereo partly drawn) [carbenicillin], the DILI severity category result under setting [1] is reported as “vLess-DILI-Concern”.
For `CN(C)CCOC(c1ccc(Cl)cc1)c1ccccn1` (stereo not drawn) [carbinoxamine], the DILI severity category result under setting [1] is “vNo-DILI-Concern”. Further, the “DILI +VE (5-8), DILI -VE (-4)” value under setting [2] is reported as “-VE”.
Take `CCCCC[C@](C)(O)/C=C/[C@@H]1[C@@H](C/C=C\CCCC(=O)O)[C@@H](O)C[C@H]1O` [carboprost tromethamine]: under setting [1], the DILI severity category entry is on record as “vNo-DILI-Concern”. Under setting [2], the “DILI +VE (5-8), DILI -VE (-4)” value is listed as “-VE”.
`COc1ccccc1OCCNCC(O)COc1cccc2[nH]c3ccccc3c12` (stereo not drawn) [carvedilol]: the DILI severity category result under setting [1] is “vLess-DILI-Concern”.
On to `CC[C@H](C)C[C@H](C)CCCCCCCCC(=O)N[C@H]1C[C@@H](O)[C@@H](NCCN)NC(=O)[C@@H]2[C@@H](O)CCN2C(=O)[C@H]([C@H](O)CCN)NC(=O)[C@H]([C@H](O)[C@@H](O)c2ccc(O)cc2)NC(=O)[C@@H]2C[C@@H](O)CN2C(=O)[C@H]([C@@H](C)O)NC1=O` [caspofungin], for which the DILI severity category result under setting [1] is given as “Ambiguous DILI-concern”. Further, the “DILI +VE (5-8), DILI -VE (-4)” value under setting [2] is “-VE”.
As for `N[C@@H](C(=O)N[C@@H]1C(=O)N2C(C(=O)O)=C(Cl)CS[C@H]12)c1ccccc1` [cefaclor], under setting [1], the DILI severity category entry is on record as “vLess-DILI-Concern”.
As for `CC1=C(C(=O)O)N2C(=O)[C@@H](NC(=O)[C@H](N)c3ccc(O)cc3)[C@H]2SC1` [cefadroxil], the DILI severity category entry under setting [1] is given as “vLess-DILI-Concern”.
With `Cc1nnc(SCC2=C(C(=O)O)N3C(=O)[C@@H](NC(=O)Cn4cnnn4)[C@H]3SC2)s1` [cefazolin], under “in vivo”, the “DILI +VE (5-8), DILI -VE (-4)” value is “+VE” and the DILI severity category result was “vLess-DILI-Concern”.
On to `C=CC1=C(C(=O)O)N2C(=O)[C@@H](NC(=O)/C(=N\O)c3csc(N)n3)[C@H]2SC1` [cefdinir], for which the DILI severity category entry under setting [1] is reported as “vLess-DILI-Concern”.
For `CO/N=C(\C(=O)N[C@@H]1C(=O)N2C(C(=O)O)=C(/C=C\c3scnc3C)CS[C@H]12)c1csc(N)n1` [cefditoren], the DILI severity category result under setting [1] is on record as “Ambiguous DILI-concern”. Moreover, the “DILI +VE (5-8), DILI -VE (-4)” value under setting [2] is recorded as “-VE”.
Consider `CO/N=C(\C(=O)N[C@@H]1C(=O)N2C(C(=O)[O-])=C(C[N+]3(C)CCCC3)CS[C@H]12)c1csc(N)n1` [cefepime], for which, under “in vivo”, the “DILI +VE (5-8), DILI -VE (-4)” value was “+VE” and the DILI severity category entry is recorded as “vLess-DILI-Concern”.
For the molecule `CO[C@@]1(NC(=O)Cc2cccs2)C(=O)N2C(C(=O)O)=C(COC(N)=O)CS[C@@H]21` [cefoxitin], the DILI severity category entry under setting [1] is listed as “Ambiguous DILI-concern”. For the same molecule, under setting [2], the “DILI +VE (5-8), DILI -VE (-4)” value was “-VE”.
For `COCC1=C(C(=O)O)N2C(=O)[C@@H](NC(=O)/C(=N\OC)c3csc(N)n3)[C@H]2SC1` [cefpodoxime], the DILI severity category result under setting [1] was “Ambiguous DILI-concern”. Besides, under setting [2], the “DILI +VE (5-8), DILI -VE (-4)” value is recorded as “-VE”.
With `CC=CC1=C(C(=O)O)N2C(=O)[C@@H](NC(=O)[C@H](N)c3ccc(O)cc3)[C@H]2SC1` [cefprozil], for the setting “in vivo”, the “DILI +VE (5-8), DILI -VE (-4)” value is given as “+VE” and the DILI severity category result is “vLess-DILI-Concern”.
Regarding `Nc1nc(/C(=C/CC(=O)O)C(=O)N[C@@H]2C(=O)N3C(C(=O)O)=CCS[C@H]23)cs1` [ceftibuten], under setting [1], the DILI severity category result is listed as “Ambiguous DILI-concern”. Besides, the “DILI +VE (5-8), DILI -VE (-4)” value under setting [2] is listed as “-VE”.
On to `CO/N=C(\C(=O)N[C@@H]1C(=O)N2C(C(=O)O)=CCS[C@H]12)c1csc(N)n1` [ceftizoxime], for which, under setting [1], the DILI severity category result is “Ambiguous DILI-concern”. For the same molecule, the “DILI +VE (5-8), DILI -VE (-4)” value under setting [2] is “-VE”.
Regarding `CO/N=C(\C(=O)N[C@@H]1C(=O)N2C(C(=O)O)=C(COC(N)=O)CS[C@H]12)c1ccco1` [cefuroxime], the DILI severity category entry under setting [1] is given as “vLess-DILI-Concern”.
On to `CC1=C(C(=O)O)N2C(=O)[C@@H](NC(=O)[C@H](N)C3=CCC=CC3)[C@H]2SC1` [cephradine], for which the DILI severity category entry under setting [1] was “Ambiguous DILI-concern”. The “DILI +VE (5-8), DILI -VE (-4)” value under setting [2] is “-VE”.
Consider `CC(=O)N[C@H](Cc1ccc2ccccc2c1)C(=O)N[C@H](Cc1ccc(Cl)cc1)C(=O)N[C@H](Cc1cccnc1)C(=O)N[C@@H](CO)C(=O)N[C@@H](Cc1ccc(O)cc1)C(=O)N[C@H](CCCNC(N)=O)C(=O)N[C@@H](CC(C)C)C(=O)N[C@@H](CCCNC(=N)N)C(=O)N1CCC[C@H]1C(=O)N[C@H](C)C(N)=O` [cetrorelix] (Ac-[d2Nal][dPhe(4-Cl)][d3Pal]SY[dCit]LRP[dA]-NH2), for which the DILI severity category result under setting [1] is recorded as “Ambiguous DILI-concern”. In addition, under setting [2], the “DILI +VE (5-8), DILI -VE (-4)” value is recorded as “-VE”.
Regarding `CC1OC2(CS1)CN1CCC2CC1` (stereo not drawn) [cevimeline], the DILI severity category result under setting [1] is given as “Ambiguous DILI-concern”. Moreover, the “DILI +VE (5-8), DILI -VE (-4)” value under setting [2] was “-VE”.
With `CN1CCN(C(c2ccccc2)c2ccc(Cl)cc2)CC1` (stereo not drawn) [chlorcyclizine], under setting [1], the DILI severity category entry is given as “vLess-DILI-Concern”.
In the case of `CNC1=Nc2ccc(Cl)cc2C(c2ccccc2)=[N+]([O-])C1` [chlordiazepoxide], for the setting “in vivo”, the “DILI +VE (5-8), DILI -VE (-4)” value is on record as “+VE” and the DILI severity category entry is “vLess-DILI-Concern”.
Take `CN1C(=O)CCS(=O)(=O)C1c1ccc(Cl)cc1` (stereo not drawn) [chlormezanone]: where the note is “in vivo”, the “DILI +VE (5-8), DILI -VE (-4)” value is given as “+VE” and the DILI severity category result is given as “vMost-DILI-Concern”.
Take `NS(=O)(=O)c1cc(C2(O)NC(=O)c3ccccc32)ccc1Cl` (stereo not drawn) [chlorthalidone]: the DILI severity category entry under setting [1] is “Ambiguous DILI-concern”. Further, the “DILI +VE (5-8), DILI -VE (-4)” value under setting [2] is reported as “-VE”.
On to `Nc1ccn(C[C@@H](CO)OCP(=O)(O)O)c(=O)n1` [cidofovir], for which the DILI severity category result under setting [1] is “Ambiguous DILI-concern”. In addition, the “DILI +VE (5-8), DILI -VE (-4)” value under setting [2] is on record as “-VE”.
As for `C[C@@H](NCCCc1cccc(C(F)(F)F)c1)c1cccc2ccccc12` [cinacalcet], under setting [1], the DILI severity category entry is on record as “vNo-DILI-Concern”. For the same molecule, the “DILI +VE (5-8), DILI -VE (-4)” value under setting [2] is on record as “-VE”.
As to `COc1ccc(C[C@@H]2c3cc(OC)c(OC)cc3CC[N@+]2(C)CCC(=O)OCCCCCOC(=O)CC[N@@+]2(C)CCc3cc(OC)c(OC)cc3[C@H]2Cc2ccc(OC)c(OC)c2)cc1OC` [cisatracurium besylate], the DILI severity category result under setting [1] is “vNo-DILI-Concern”. Further, the “DILI +VE (5-8), DILI -VE (-4)” value under setting [2] is given as “-VE”.
On to `CCC[C@@H]1C[C@@H](C(=O)N[C@@H]([C@H]2O[C@H](SC)[C@H](OP(=O)(O)O)[C@@H](O)[C@H]2O)[C@H](C)Cl)N(C)C1` [clindamycin-2-phosphate], for which the DILI severity category result (in vivo) was “Ambiguous DILI-concern”.
In the case of `CCC[C@@H]1C[C@@H](C(=O)N[C@@H]([C@H]2O[C@H](SC)[C@H](O)[C@@H](O)[C@H]2O)[C@H](C)Cl)N(C)C1` [clindamycin], the DILI severity category result (in vivo) is “vLess-DILI-Concern”.
In the case of `Nc1nc(Cl)nc2c1ncn2[C@@H]1O[C@H](CO)[C@@H](O)[C@@H]1F` [clofarabine], under setting [1], the DILI severity category entry is recorded as “Ambiguous DILI-concern”. Besides, under setting [2], the “DILI +VE (5-8), DILI -VE (-4)” value is listed as “-VE”.
Consider `CN(C)CCCC1c2ccccc2Nc2ccc(Cl)cc21` (stereo not drawn) [clomacran], for which, under setting [1], the DILI severity category result is “vMost-DILI-Concern”.
For the molecule `COc1ccc2c(C(=O)c3ccc(Cl)cc3)c(C)n(CC(=O)O)c2c1` [clometacin], the DILI severity category entry under setting [1] is “vMost-DILI-Concern”.
As to `CCN(CC)CCOc1ccc(C(=C(Cl)c2ccccc2)c2ccccc2)cc1` [clomiphene], under setting [1], the DILI severity category entry is recorded as “vLess-DILI-Concern”.
Take `COC(=O)[C@H](c1ccccc1Cl)N1CCc2sccc2C1` [clopidogrel]: the DILI severity category entry under setting [1] is “vLess-DILI-Concern”.
Consider `O=C(O)C1N=C(c2ccccc2)c2cc(Cl)ccc2NC1=O` (stereo not drawn) [clorazepate], for which the DILI severity category result under setting [1] is recorded as “Ambiguous DILI-concern”. Further, the “DILI +VE (5-8), DILI -VE (-4)” value under setting [2] is on record as “-VE”.
For the molecule `COc1ccc2c3c1O[C@H]1[C@@H](O)C=C[C@H]4[C@@H](C2)N(C)CC[C@@]341` [codeine], where the note is “in vivo”, the “DILI +VE (5-8), DILI -VE (-4)” value is “-VE” and the DILI severity category entry is “vNo-DILI-Concern”.
As for `CC(=O)OCC(=O)[C@@]1(O)CC[C@H]2[C@@H]3CCC4=CC(=O)CC[C@]4(C)[C@H]3C(=O)C[C@@]21C` [cortisone acetate], the “DILI +VE (5-8), DILI -VE (-4)” value under setting [3] is listed as “-VE”. For the same molecule, the DILI severity category result under setting [4] was “vNo-DILI-Concern”.
`[Cl][Cu][Cl]` [cupric chloride]: for the setting “in vivo”, the “DILI +VE (5-8), DILI -VE (-4)” value was “-VE” and the DILI severity category result was “vNo-DILI-Concern”.
For `NCCS` [cysteamine], under setting [3], the “DILI +VE (5-8), DILI -VE (-4)” value was “-VE”. Under setting [4], the DILI severity category result is given as “Ambiguous DILI-concern”.
As for `CCCCCCCCCC(=O)N[C@@H](Cc1c[nH]c2ccccc12)C(=O)N[C@H](CC(N)=O)C(=O)N[C@@H](CC(=O)O)C(=O)N[C@@H]1C(=O)NCC(=O)N[C@@H](CCCN)C(=O)N[C@@H](CC(=O)O)C(=O)N[C@H](C)C(=O)N[C@@H](CC(=O)O)C(=O)NCC(=O)N[C@H](CO)C(=O)N[C@@H]([C@H](C)CC(=O)O)C(=O)N[C@@H](CC(=O)c2ccccc2N)C(=O)O[C@@H]1C` [daptomycin], the “DILI +VE (5-8), DILI -VE (-4)” value under setting [3] is on record as “+VE”. Besides, the DILI severity category entry under setting [4] is “vLess-DILI-Concern”.
For the molecule `NC(=O)C(c1ccccc1)(c1ccccc1)[C@@H]1CCN(CCc2ccc3c(c2)CCO3)C1` [darifenacin], the “DILI +VE (5-8), DILI -VE (-4)” value under setting [3] was “-VE”. Also, under setting [4], the DILI severity category result was “vNo-DILI-Concern”.
For `Nc1ncn([C@H]2C[C@H](O)[C@@H](CO)O2)c(=O)n1` [decitabine], the “DILI +VE (5-8), DILI -VE (-4)” value under setting [3] was “-VE”. For the same molecule, the DILI severity category entry under setting [4] is “Ambiguous DILI-concern”.
